Source: article PMC6963856, “Increases in Hydrophilicity and Charge on the Polar Face of Alyteserin 1c Helix Change its Selectivity towards Gram-Positive Bacteria” (Antibiotics, 2019)
Where no end group is shown, it is not given here.

What was measured:
S. typhimurium ATCC14028 = type: cell-based
Experimental: (§1) Antimicrobial assays were performed according to the Clinical and Laboratory Standards Institute, CLSI [45] with slight modifications. A bacterial culture in Mueller Hinton broth in exponential phase was diluted in Mueller Hinton broth until reaching an OD625 of 0.1 (approximately 1 × 10^8 CFU/mL). Then, this culture was diluted once more by a factor of 1:200. Subsequently, 90 µL of bacterial culture was incubated with 10 µL of peptide to reach a final inoculum of approximately 5 × 10^5 CFU/mL. The incubation time was 18–20 h in sterile 96-well plates at 37 °C. The peptides were applied at different serial dilutions (diluted in half) from 250 μM to 0.97 μM. As a negative control, phosphate-buffered saline (PBS; 138 mM NaCl, 3 mM KCl, 1.5 mM NaH2PO4, 8.1 mM Na2HPO4, pH 7.4) was used. After incubation, bacterial growth was visualized to obtain the minimum inhibitory concentration (MIC).

B. cereus ATCC11778 = type: cell-based
Experimental: as §1

[1] = tested on: L. monocytogenes ATCCbaa751; type: cell-based
Experimental: as §1

E. coli ATCC25922 = type: cell-based, Escherichia coli
Experimental: as §1

[2] = tested on: S. aureus ATCC43300 (MRSA); type: cell-based, Staphylococcus aureus
Experimental: as §1

S. aureus ATCC25923 = type: cell-based, Staphylococcus aureus
Experimental: as §1

[3] = tested on: S. aureus ATCC29213 (MSSA, ampicillin-resistant); type: cell-based, Staphylococcus aureus
Experimental: as §1

human erythrocytes = conditions: cited from earlier work
Description: A peptide of 23 amino acid residues with a net charge of +2, Alyerserin-1c (WT), was isolated for the first time from the cutaneous secretions of the Alytes obstetricans toad. […] Furthermore, the three-dimensional structure of Alyteserin-1c was characterized as an extended α-helix between Leu2 and Val21 residues. In a recent study by Aragón-Muriel et al., it was reported that the Alyteserin-1 ...

P. aeruginosa ATCC9027 = type: cell-based
Experimental: as §1

Row | Substance | MIC S. typhimurium ATCC14028 (S. typhimurium ATCC14028) [µM] | MIC B. cereus ATCC11778 (B. cereus ATCC11778) [µM] | MIC L. monocytogenes ATCCbaa751 [1] [µM] | MIC E. coli ATCC25922 (E. coli ATCC25922) [µM] | MIC S. aureus ATCC43300 [2] [µM] | MIC S. aureus ATCC25923 (S. aureus ATCC25923) [µM] | MIC S. aureus ATCC29213 [3] [µM] | HC50 human erythrocytes (human erythrocytes) [µM] | MIC P. aeruginosa ATCC9027 (P. aeruginosa ATCC9027) [µM]
1 | GLKRIFKSGLGKLVKGISAHVAS-NH2 [ΔM] | 125 | 125 | 62.5 | 62.5 | 250 | 62.5 | 250 | – | –
2 | GLKEIFKAGLGSLVKGIAAHVAS-NH2 [WT, Alyteserin-1c, reference compound] | – | – | 125 | 15.2 | – | 250 | – | 220 | 31.3
